One block for each compound: values may come before it. The source made the active and inactive calls. The calls are words filed in the database; no cut-off is given here.
How the values were obtained:
[1] = system: Rattus norvegicus; assay: Hypoglycemic activity in STZ-nicotinamide-induced Wistar rat diabetic model at 5 mg/kg, po after 1 to 7 hrs; type: functional, organism-based; set-up: dose 5 mg/kg
[2] = biological target: 11-beta-hydroxysteroid dehydrogenase 1 (Homo sapiens) (UniProt P28845); assay: Inhibition of full-length human 11beta-HSD1 expressed in HEK293 cells at 10 uM after 2 hrs by scintillation proximity assay relative to control; type: cell-based
[3] = system: Rattus norvegicus; assay: Hypoglycemic activity in STZ-nicotinamide-induced Wistar rat diabetic model at 50 mg/kg, ig after 1 to 7 hrs relative to control; type: functional; conditions: route intragastric
[4] = biological target: 11-beta-hydroxysteroid dehydrogenase 1 (Homo sapiens) (UniProt P28845); assay: Inhibition of full-length human 11beta-HSD1 expressed in HEK293 cells at 10 uM after 2 hrs by scintillation proximity assay relative to clofibric acid; type: cell-based
[5] = biological target: 11-beta-hydroxysteroid dehydrogenase 1 (Homo sapiens) (UniProt P28845); assay: Inhibition of full-length human 11beta-HSD1 expressed in HEK293 cells at 10 uM after 2 hrs by scintillation proximity assay relative to clofibrate; type: cell-based
[6] = species on record: Rattus norvegicus; assay: Hypoglycemic activity in STZ-nicotinamide-induced Wistar rat diabetic model after 1 to 7 hrs; type: functional, organism-based

Sequence of 11-beta-hydroxysteroid dehydrogenase 1 (Homo sapiens) (P28845 whole entry, looked up): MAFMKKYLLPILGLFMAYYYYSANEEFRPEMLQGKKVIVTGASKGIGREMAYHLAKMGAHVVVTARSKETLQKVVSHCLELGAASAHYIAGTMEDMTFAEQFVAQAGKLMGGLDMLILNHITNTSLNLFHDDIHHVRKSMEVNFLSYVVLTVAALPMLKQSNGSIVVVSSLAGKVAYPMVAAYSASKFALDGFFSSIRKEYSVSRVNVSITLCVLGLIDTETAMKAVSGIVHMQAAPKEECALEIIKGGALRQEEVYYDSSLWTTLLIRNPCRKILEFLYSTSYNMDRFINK

SMILES: COc1ccc(Cl)cc1C(=O)NCCc1ccc(S(=O)(=O)NC(=O)NC2CCCCC2)cc1
- Activity [1]: Active

SMILES: CC1(C)[C@@H](OC(=O)CCC(=O)O)CC[C@]2(C)[C@H]3C(=O)C=C4[C@@H]5C[C@@](C)(C(=O)O)CC[C@]5(C)CC[C@@]4(C)[C@]3(C)CC[C@@H]12
- inhibition [2]: 78.3%

Continued, in another order:

- inhibition [2]: 51.2%
- fold change (FC) [4]: 2.5
- fold change (FC) [5]: 2.5
SMILES: CC(C)(Oc1ccc(Cl)cc1)C(=O)Nc1nnn[nH]1
- Activity [3]: 16%

- inhibition [2]: 18.1%
SMILES: CCOC(=O)C(C)(C)Oc1ccc(Cl)cc1

- inhibition [2]: 19.1%
SMILES: CC(C)(Oc1ccc(Cl)cc1)C(=O)O
- Activity [6]: inactive

— ChEMBL document CHEMBL2385034, “Discovery, synthesis and in combo studies of a tetrazole analogue of clofibric acid as a potent hypoglycemic agent” (2013)
